Legend:
[1] = target: D(1B) dopamine receptor (Homo sapiens) (UniProt P21918); experiment: Positive allosteric modulator activity at human dopamine D5 receptor expressed in CHO-K1 cells assessed as fold change in dopamine EC50 for beta-arrestin2 recruitment at 50 uM incubated for 90 mins by PathHunter assay relative to control; format: cell-based; conditions: filed as positive allosteric modulator
[2] = target: D(1B) dopamine receptor (Homo sapiens) (UniProt P21918); experiment: Positive allosteric modulator activity at human dopamine D5 receptor expressed in CHO-K1 cells assessed as fold change in dopamine Emax for beta-arrestin2 recruitment at 50 uM incubated for 90 mins by PathHunter assay relative to control; format: cell-based; conditions: filed as positive allosteric modulator

Chain of D(1B) dopamine receptor (Homo sapiens) (P21918 whole entry): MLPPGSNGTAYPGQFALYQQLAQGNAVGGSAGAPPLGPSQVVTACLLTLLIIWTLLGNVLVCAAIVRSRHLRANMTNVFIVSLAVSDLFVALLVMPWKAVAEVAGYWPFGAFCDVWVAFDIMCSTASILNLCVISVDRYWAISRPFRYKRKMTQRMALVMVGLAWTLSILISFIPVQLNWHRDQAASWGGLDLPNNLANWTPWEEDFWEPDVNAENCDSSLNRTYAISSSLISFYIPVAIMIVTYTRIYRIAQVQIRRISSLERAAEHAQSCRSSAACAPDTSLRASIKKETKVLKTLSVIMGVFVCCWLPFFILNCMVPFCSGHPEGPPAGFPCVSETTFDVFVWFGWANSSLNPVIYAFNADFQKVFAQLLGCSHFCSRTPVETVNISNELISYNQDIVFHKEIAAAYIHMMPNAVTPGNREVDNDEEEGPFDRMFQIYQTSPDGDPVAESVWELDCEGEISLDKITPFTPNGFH

In the case of `Cn1c2ccccc2c(=O)c2c(=O)n(-c3ccccc3)c(C3CCCCC3)nc21`, the fold change (FC) [1] is reported as 2.84 and the fold change (FC) [2] is reported as 1.5.
